Experimental data from publication PMC6720199, “Antioxidant, Anti-Inflammatory, and Multidrug Resistance Modulation Activity of Silychristin Derivatives” (Antioxidants, 2019).

Target: T1, P-glycoprotein (P-gp, ABCB1) (Homo sapiens, UniProt P08183)
T1 construct: P-gp containing membranes of the commercial Pgp-Glo Assay System (Promega; kit membranes carry recombinant human P-gp); full length, not purified
Experiment: Pgp-Glo luminescent ATPase assay, P-gp membranes
Format: biochemical
Text: Pgp-Glo luminescent ATPase assay, P-gp membranes on P-glycoprotein (P-gp, ABCB1)

T1 sequence (P08183 whole entry): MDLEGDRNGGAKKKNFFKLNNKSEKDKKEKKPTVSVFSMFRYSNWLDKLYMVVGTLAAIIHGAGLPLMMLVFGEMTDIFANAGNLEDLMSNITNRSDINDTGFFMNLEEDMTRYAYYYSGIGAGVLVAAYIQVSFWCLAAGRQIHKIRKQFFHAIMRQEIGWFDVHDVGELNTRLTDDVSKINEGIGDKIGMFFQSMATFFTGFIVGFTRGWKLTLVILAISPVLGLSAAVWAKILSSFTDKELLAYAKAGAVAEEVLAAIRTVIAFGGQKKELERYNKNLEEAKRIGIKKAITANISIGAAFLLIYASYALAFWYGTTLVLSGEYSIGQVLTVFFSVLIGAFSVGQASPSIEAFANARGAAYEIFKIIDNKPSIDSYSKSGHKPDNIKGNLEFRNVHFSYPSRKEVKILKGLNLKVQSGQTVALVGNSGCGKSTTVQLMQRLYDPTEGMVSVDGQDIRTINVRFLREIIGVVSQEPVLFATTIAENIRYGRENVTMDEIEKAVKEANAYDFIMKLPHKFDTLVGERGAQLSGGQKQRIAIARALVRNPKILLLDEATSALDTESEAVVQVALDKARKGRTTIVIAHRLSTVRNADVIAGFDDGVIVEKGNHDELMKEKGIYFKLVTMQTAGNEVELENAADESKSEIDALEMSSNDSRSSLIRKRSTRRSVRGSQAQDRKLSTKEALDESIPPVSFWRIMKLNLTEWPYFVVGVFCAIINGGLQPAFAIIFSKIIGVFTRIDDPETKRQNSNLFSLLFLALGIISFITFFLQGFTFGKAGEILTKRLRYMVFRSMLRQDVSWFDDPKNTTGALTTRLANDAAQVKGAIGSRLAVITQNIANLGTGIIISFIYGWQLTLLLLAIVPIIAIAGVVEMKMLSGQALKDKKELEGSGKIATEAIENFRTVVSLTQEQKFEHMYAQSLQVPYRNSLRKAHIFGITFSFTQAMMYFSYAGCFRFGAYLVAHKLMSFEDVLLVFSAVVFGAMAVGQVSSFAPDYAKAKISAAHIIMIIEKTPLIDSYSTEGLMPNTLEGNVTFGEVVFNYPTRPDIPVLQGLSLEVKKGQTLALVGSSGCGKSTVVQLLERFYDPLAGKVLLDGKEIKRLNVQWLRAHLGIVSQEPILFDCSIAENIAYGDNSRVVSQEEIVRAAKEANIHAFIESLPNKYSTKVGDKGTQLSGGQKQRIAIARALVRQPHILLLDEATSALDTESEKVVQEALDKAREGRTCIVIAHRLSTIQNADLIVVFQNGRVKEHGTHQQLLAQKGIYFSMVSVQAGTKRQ

Work on COc1cc([C@@H]2Oc3c(O)cc(-c4oc5cc(O)cc(O)c5c(=O)c4O)cc3[C@H]2CO)ccc1O [2,3-Dehydrosilychristin A] yielded an IC50 of 15.6 ± 0.5 µM.
COc1cc(-c2oc3c(O)cc([C@H]4Oc5cc(O)cc(O)c5C(=O)[C@@H]4O)cc3c2C)ccc1O [Anhydrosilychristin] showed an IC50 of 16.8 ± 0.2 µM.
With COc1cc([C@@H]2Oc3c(O)cc([C@H]4Oc5cc(O)cc(O)c5C(=O)[C@@H]4O)cc3[C@H]2CO)ccc1O [Silychristin A] the IC50 was 21 ± 1 µM.
